Results published in the supplement of paper PMC10307832.

Legend:
Assay in all cases: relative viability (nuclei count vs DMSO), 5 days (fraction); higher = more cells survive
Pictilisib + Phenformin = compound: CS(=O)(=O)N1CCN(Cc2cc3nc(-c4cccc5[nH]ncc45)nc(N4CCOCC4)c3s2)CC1 [Pictilisib] + N=C(N)NC(=N)NCCc1ccccc1 [Phenformin] (partner 250 µM)
Method in brief: (§1)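 A single step with final 0.05% Triton X-100, 1% formaldehyde and 1 ug/ml Hoechst fixed the cells and stained nuclei 5 days after treatment. Lung cancer cell lines in 1536-well plates had been treated by pin tool the day after seeding with one drug alone or a fixed anchor-drug dose plus five library-drug doses (not always all listed) in √10 steps, and nuclei were counted on 4× images. Relative viability is the ratio of nuclei in treated wells to nuclei in vehicle wells, taken as the median of duplicate plates.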

MK-2206 + Palbociclib = compound: NC1(c2ccc(-c3nc4ccn5c(=O)[nH]nc5c4cc3-c3ccccc3)cc2)CCC1 [MK-2206] + CC(=O)c1c(C)c2cnc(Nc3ccc(N4CCNCC4)cn3)nc2n(C2CCCC2)c1=O [Palbociclib] (partner 0.5 µM)
Method in brief: as §1

MK-2206 + Pictilisib = compound: NC1(c2ccc(-c3nc4ccn5c(=O)[nH]nc5c4cc3-c3ccccc3)cc2)CCC1 [MK-2206] + CS(=O)(=O)N1CCN(Cc2cc3nc(-c4cccc5[nH]ncc45)nc(N4CCOCC4)c3s2)CC1 [Pictilisib] (partner 1 µM)
Method in brief: as §1

Pictilisib + Vorinostat = compound: CS(=O)(=O)N1CCN(Cc2cc3nc(-c4cccc5[nH]ncc45)nc(N4CCOCC4)c3s2)CC1 [Pictilisib] + O=C(CCCCCCC(=O)Nc1ccccc1)NO [Vorinostat] (partner 1 µM)
Method in brief: as §1

MK-2206 + Olaparib = compound: NC1(c2ccc(-c3nc4ccn5c(=O)[nH]nc5c4cc3-c3ccccc3)cc2)CCC1 [MK-2206] + O=C(c1cc(Cc2n[nH]c(=O)c3ccccc23)ccc1F)N1CCN(C(=O)C2CC2)CC1 [Olaparib] (partner 8 µM)
Method in brief: as §1

Cell Line	relative viability (Pictilisib + Phenformin; first compound 0.02 µM)	relative viability (Pictilisib + Phenformin; first compound 0.06325 µM)	relative viability (Pictilisib + Phenformin; first compound 0.6325 µM)	relative viability (Pictilisib + Phenformin; first compound 2 µM)	relative viability (MK-2206 + Palbociclib; first compound 0.01 µM)	relative viability (MK-2206 + Palbociclib; first compound 0.03162 µM)	relative viability (MK-2206 + Palbociclib; first compound 0.3162 µM)	relative viability (MK-2206 + Palbociclib; first compound 1 µM)	relative viability (MK-2206 + Pictilisib; first compound 0.01 µM)	relative viability (MK-2206 + Pictilisib; first compound 0.03162 µM)	relative viability (MK-2206 + Pictilisib; first compound 0.3162 µM)	relative viability (MK-2206 + Pictilisib; first compound 1 µM)	relative viability (Pictilisib + Vorinostat; first compound 0.02 µM)	relative viability (Pictilisib + Vorinostat; first compound 0.06325 µM)	relative viability (Pictilisib + Vorinostat; first compound 0.6325 µM)	relative viability (Pictilisib + Vorinostat; first compound 2 µM)	relative viability (MK-2206 + Olaparib; first compound 0.01 µM)	relative viability (MK-2206 + Olaparib; first compound 0.03162 µM)	relative viability (MK-2206 + Olaparib; first compound 0.3162 µM)	relative viability (MK-2206 + Olaparib; first compound 1 µM)
HOP-62	0.681	0.701	0.717	0.598	0.407	0.468	0.452	0.485	0.563	1.11	0.728	0.48	0.676	0.573	0.566	0.348	0.472	0.412	0.574	0.573
LC-2-ad	0.593	0.636	0.464	0.323	0.488	0.523	0.51	0.499	0.452	0.63	0.502	0.352	0.699	0.779	0.466	0.447	0.662	0.73	0.767	0.795
SW 900	0.617	0.554	0.417	0.191	0.582		0.532	0.423					0.695	0.579	0.382	0.231	0.79		0.874	0.885
NCI-H322M	0.861	0.773	0.566	0.418	0.51	0.469	0.519	0.527	0.509	0.529	0.489	0.511	0.955	0.888	0.741	0.543	0.778	0.806	0.782	0.874
SK-LU-1	0.648	0.509	0.393	0.308	0.431	0.433	0.375	0.353	0.584	0.478	0.535	0.474	0.857	0.818	0.618	0.511	0.47	0.457	0.47	0.371
NCI-H1734	0.427	0.362	0.271	0.197	0.238	0.369	0.28	0.264	0.475	0.463	0.329	0.393	0.878	0.779	0.482	0.375	0.63	0.667	0.648	0.507
HCC-44	0.215	0.151	0.154	0.0888	0.918	0.938	0.974	0.946	0.804	0.619	0.496	0.392	1.19	1.14	1.17	0.783	1.06	1	1.04	0.97
NCI-H1703									0.239	0.232	0.236	0.254					0.444	0.426	0.443	0.407
NCI-H2170	0.394	0.444	0.424	0.365	0.4	0.391	0.354	0.343	0.367	0.363	0.309	0.262	0.856	0.822	0.611	0.304	0.617	0.585	0.597	0.558
NCI-H1395	0.453	0.425	0.386	0.399	0.65	0.664	0.485	0.526	0.653	0.677	0.462	0.498	1.08	0.727	0.498	0.369	0.492	0.49	0.418	0.411
NCI-H1355	0.493	0.467	0.393	0.248	0.39	0.392	0.362	0.329	0.486	0.475	0.454	0.4	0.62	0.624	0.589	0.257	0.767	0.829	0.672	0.761
NCI-H1650	0.492	0.318	0.247	0.176	0.291	0.334	0.331	0.356	0.549	0.566	0.476	0.56	0.566	0.666	0.819	0.358	0.72	0.864	0.969	0.957
IA-LM									0.299	0.256	0.26	0.141	0.917	0.97	0.881	0.373	0.869	0.791	0.993	0.781
NCI-H1666	0.576	0.615	0.522	0.462	0.63	0.675	0.652	0.586	0.403	0.414	0.405	0.403	1.09	1.03	0.916	0.867	0.702	0.794	0.802	0.774
HCC-78	0.587	0.705	0.427	0.312	0.426	0.489	0.496	0.398	0.25	0.202	0.204	0.162	0.393	0.384	0.322	0.257	0.932	1.06	0.716	0.739
H3255	0.399	0.344	0.334	0.318	0.313	0.302	0.283	0.288	0.477	0.45	0.399	0.384	0.813	0.779	0.788	0.414	0.539	0.58	0.538	0.518
NCI-H23	0.84	0.82	0.664	0.523	0.555	0.5	0.427	0.459	0.528	0.491	0.444	0.464	0.636	0.722	0.349	0.263	0.302	0.326	0.255	0.285
